# Literature values as cited in patent US11865201B2, “Product for dyeing keratinous material, containing aminosilicone, a chromophoric compound and ethoxylated fatty acid ester” (Henkel AG & Co. KGaA, priority 2019, dated 2024).
# Conditions: 25° C.
solubility in water (in words),Compound,solubility in water
highly soluble in water,"O=C([O-])C1=NN(c2ccc(S(=O)(=O)[O-])cc2)C(=O)C1N=Nc1ccc(S(=O)(=O)[O-])cc1.[Na+].[Na+].[Na+] (centres unmarked) [Acid Yellow 23, trisodium salt of 4,5-dihydro-5-oxo-1-(4-sulfophenyl)-4-((4-sulfophenyl)azo)-1H-pyrazole-3-carboxylic acid]",–
–,"O=C([O-])c1c(Cl)c(Cl)c(Cl)c(Cl)c1-c1c2c(Br)cc(=O)c(Br)c-2oc2c(Br)c(O)cc(Br)c12.O=C([O-])c1c(Cl)c(Cl)c(Cl)c(Cl)c1-c1c2c(Br)cc(=O)c(Br)c-2oc2c(Br)c(O)cc(Br)c12.[Na+].[Na+] [Acid Red 92, disodium salt of 3,4,5,6-tetrachloro-2-(1,4,5,8-tetrabromo-6-hydroxy-3-oxoxanthen-9-yl)benzoic acid]",greater than 10 g/L
–,CCN(Cc1cccc(S(=O)(=O)[O-])c1)c1ccc(C(=C2C=CC(=[N+](CC)Cc3cccc(S(=O)(=O)[O-])c3)C=C2)c2ccccc2S(=O)(=O)[O-])cc1.[Na+].[Na+] [Acid Blue 9],more than 20 wt. %
–,"Nc1cc(S(=O)(=O)[O-])cc2cc(S(=O)(=O)[O-])c(N=Nc3ccccc3)c(O)c12.[Na+].[Na+] [Acid Red 33, diantrium salt of 5-amino-4-hydroxy-3-(phenylazo)-naphthalene-2,7-disulphonate]",2.5 g/L
–,"O=S(=O)([O-])c1ccc(N=Nc2c(O)ccc3ccccc23)cc1.[Na+] [Acid Orange 7, sodium salt of 4-[(2-hydroxy-1-naphthyl)azo]benzene sulphonate]",more than 7 g/L
